Calls of active or inactive are those of the source.
Tests used:
[1] = biological target: T1, Ubiquitin-conjugating enzyme E2 N (Homo sapiens, UniProt P61088); assay type: functional;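 note: Dose-response confirmation in a TR-FRET assay detecting UBC13-driven polyubiquitin chain formation, inhibition measured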
T1 sequence (P61088 whole entry): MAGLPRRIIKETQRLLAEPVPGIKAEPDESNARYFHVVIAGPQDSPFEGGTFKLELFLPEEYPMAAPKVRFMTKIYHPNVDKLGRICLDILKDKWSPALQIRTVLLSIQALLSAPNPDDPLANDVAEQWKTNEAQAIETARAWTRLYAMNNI

Paired box protein Pax-8 = Paired box protein Pax-8 (Homo sapiens, UniProt Q06710); assay: PAX8 transcriptional activity inhibition in RMG-I – RMG-I cells, luciferase, cherry-pick, dose response (AID 687027); assay type: functional, cell-based;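 note: luciferase reporter driven by Pax8 target thyroperoxidase promoter measured by SteadyGlo luminescence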
[2] = general cell-killing toxicity readout – plate reader, dry powder samples, cytotoxicity control for PAX8 inhibitor project, dose response (AID 743021); assay type: functional, cell-based
[3] = biological target: T2, Corticotropin-releasing factor receptor 2/Corticotropin-releasing factor-binding protein (Homo sapiens, UniProt P24387+Q13324); assay: Dose Response confirmation of uHTS hits for small molecule antagonists of the CRF-binding protein and CRF-R2 receptor complex.; assay type: functional; settings: read-out: IC50_Mean
T2 sequence (Q13324 whole entry): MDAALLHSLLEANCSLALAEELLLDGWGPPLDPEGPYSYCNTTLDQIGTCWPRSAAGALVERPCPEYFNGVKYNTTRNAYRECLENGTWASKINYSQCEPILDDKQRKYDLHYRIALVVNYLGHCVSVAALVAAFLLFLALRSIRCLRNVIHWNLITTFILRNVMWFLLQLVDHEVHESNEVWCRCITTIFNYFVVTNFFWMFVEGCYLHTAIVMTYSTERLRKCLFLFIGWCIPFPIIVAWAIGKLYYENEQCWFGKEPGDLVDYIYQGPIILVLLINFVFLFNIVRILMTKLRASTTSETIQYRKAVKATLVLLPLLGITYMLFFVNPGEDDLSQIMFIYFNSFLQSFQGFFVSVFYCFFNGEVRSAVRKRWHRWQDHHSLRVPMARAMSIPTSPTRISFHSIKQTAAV
T2 sequence (P24387 whole entry): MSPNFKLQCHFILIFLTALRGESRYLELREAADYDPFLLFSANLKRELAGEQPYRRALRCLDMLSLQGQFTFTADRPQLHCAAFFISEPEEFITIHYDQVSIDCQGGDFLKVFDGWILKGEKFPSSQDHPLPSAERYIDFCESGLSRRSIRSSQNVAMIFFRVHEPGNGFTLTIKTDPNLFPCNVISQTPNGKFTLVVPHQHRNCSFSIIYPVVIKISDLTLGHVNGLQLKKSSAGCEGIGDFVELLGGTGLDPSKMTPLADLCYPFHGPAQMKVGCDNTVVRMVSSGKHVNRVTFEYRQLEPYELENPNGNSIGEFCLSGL

[4] = biological target: T2, Corticotropin-releasing factor receptor 2/Corticotropin-releasing factor-binding protein; assay: activators of CRF receptor 2 with binding protein – uHTS hits, confirmation (AID 602473); assay type: functional; settings: read-out: EC50_Mean
P388/ADR = assay: cells; assay type: functional; settings: Mus musculus
SN12K1 = assay: cells; assay type: functional; settings: Homo sapiens
P388 = assay: cells; assay type: functional; settings: Mus musculus
[5] = A549 cell cytotoxicity, dose response, cytotoxicity control, plate reader, cherry-pick, antagonist series (AID 743412); assay type: functional, cell-based
Albumin = Albumin (Bos taurus, UniProt P02769); assay: Counterscreen for inhibitors of T-cell receptor (TCR)-CD3 interaction: Fluorescence-based biochemical high throughput dose response assay to identify inhibitors of T-cell receptor (TCR)-CD3 interaction using a TAMRA-labeled BSA probe.; assay type: functional
[6] = HGIII-sPLA2 enzyme inhibition potency – biochemical, QFRET, IC50, dose response (AID 743457);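 note: green fluorescence rise as the enzyme cleaves BODIPY PC-A2 in liposomes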
cells [7] = assay type: functional, cell-based
cells [8] = assay type: functional, cell-based; remark: listed apart in the source
[9] = test system: Streptococcus sp. 'group A'; assay: Streptococcus pyogenes SK(-)GAS viability under kanamycin – luminescence, BacTiterGlo, confirmation, counter-screen for streptokinase expression inhibitor project, dose response (AID 1900); assay type: functional, organism-based
INS1 = assay: INS-1E survival protection against cytokine death – cell-based, luminescence, retest, dose response (AID 449756); assay type: functional; settings: Rattus norvegicus;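 note: cell death triggered by IL-1 beta plus TNF-alpha plus IFN-gamma mixture; protective hits raise ATP signal compared with cytokine alone wells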
Streptococcus = assay: GAS UMAA2166 growth inhibition – luminescence, BacTiterGlo, counter-screen for streptokinase expression inhibitor project, dose response (AID 1915); assay type: functional, organism-based;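 note: potency for reduction of bacterial viability or growth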
[10] = Fluorescence-based cell-based high throughput dose response assay for inhibitors of the interaction of nucleotide-binding oligomerization domain containing 2 (NOD2) and the receptor-interacting serine-threonine kinase 2 (RIPK2).; assay type: functional; settings: Homo sapiens
[11] = reduction of Shn3 3'UTR-driven luciferase in osteoblasts – cell-based, Clone20 osteoblasts, firefly luciferase, cherry-picked, dose response (AID 624132); assay type: functional;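 note: firefly luciferase luminescence from reporter carrying the Shn3 3'UTR in osteoblasts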
[12] = loss of viability in HepG2 cells – cell-based, CellTiter-Glo, cherry-picked, cytotoxicity control for Shn3 inhibitor project, dose response (AID 624134); assay type: functional
Beta Lactamase = Beta Lactamase (Pseudomonas aeruginosa, UniProt Q932Y6); assay: BLA reporter interference, concentration series – BLA reporter cells, FRET fluorescence, artefact control for NOD2-RIPK2 interaction inhibitor project, dose response (AID 651552); assay type: functional, cell-based
[13] = non-specific 3'UTR reporter inhibition in Clone20-Shn3RL – cell-based, Renilla luciferase, cherry-picked, counter-screen for Shn3 inhibitor project, dose response (AID 624133); assay type: functional
[14] = cAMP pathway inhibition in counterscreen cell line – TR-FRET cAMP detection, counter-screen for MC4R biased antagonist project, dose response (AID 602305); assay type: functional, cell-based;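 note: U2OS cells stimulated with forskolin near its EC80 as the cAMP inducer; potency is for inhibition of forskolin-stimulated cAMP signaling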
Melanocortin receptor 4 = Melanocortin receptor 4 (Homo sapiens, UniProt P32245); assay: inhibitors of MC4R cAMP signaling – cell-based, TR-FRET, biased antagonists, dose response (AID 602298); assay type: functional;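 note: antagonist potency against agonist-stimulated cAMP production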
Melanocortin receptor 4, sequence (P32245 whole entry): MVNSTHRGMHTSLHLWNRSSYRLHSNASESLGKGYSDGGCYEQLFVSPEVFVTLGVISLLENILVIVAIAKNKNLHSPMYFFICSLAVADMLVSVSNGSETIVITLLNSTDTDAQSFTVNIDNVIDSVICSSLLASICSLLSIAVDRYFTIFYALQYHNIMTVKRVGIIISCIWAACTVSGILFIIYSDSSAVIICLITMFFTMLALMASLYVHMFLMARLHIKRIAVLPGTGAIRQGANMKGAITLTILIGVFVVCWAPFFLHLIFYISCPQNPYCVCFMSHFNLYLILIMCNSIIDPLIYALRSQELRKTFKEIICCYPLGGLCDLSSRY

Paired box protein Pax-8, sequence (Q06710 whole entry): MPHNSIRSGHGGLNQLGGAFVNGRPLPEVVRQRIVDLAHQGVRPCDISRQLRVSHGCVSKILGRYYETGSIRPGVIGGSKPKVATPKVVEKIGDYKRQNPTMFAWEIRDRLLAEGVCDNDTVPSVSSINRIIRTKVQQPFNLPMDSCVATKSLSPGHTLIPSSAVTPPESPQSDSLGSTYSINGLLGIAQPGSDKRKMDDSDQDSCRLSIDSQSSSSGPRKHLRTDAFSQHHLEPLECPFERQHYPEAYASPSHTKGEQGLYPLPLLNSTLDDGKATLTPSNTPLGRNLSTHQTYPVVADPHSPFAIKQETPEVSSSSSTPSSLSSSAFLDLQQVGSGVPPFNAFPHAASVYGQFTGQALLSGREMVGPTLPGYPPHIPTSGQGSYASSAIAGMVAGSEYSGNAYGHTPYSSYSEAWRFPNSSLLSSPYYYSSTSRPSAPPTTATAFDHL
Beta Lactamase, sequence (Q932Y6 whole entry): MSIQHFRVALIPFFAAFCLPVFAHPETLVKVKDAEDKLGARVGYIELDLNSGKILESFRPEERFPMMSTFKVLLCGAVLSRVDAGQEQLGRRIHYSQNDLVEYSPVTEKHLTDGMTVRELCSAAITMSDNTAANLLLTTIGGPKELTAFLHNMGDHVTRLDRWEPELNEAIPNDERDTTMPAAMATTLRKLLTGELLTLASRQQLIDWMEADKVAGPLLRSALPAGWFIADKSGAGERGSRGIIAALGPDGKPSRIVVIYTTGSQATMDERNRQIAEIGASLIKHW
Albumin, sequence (P02769 whole entry): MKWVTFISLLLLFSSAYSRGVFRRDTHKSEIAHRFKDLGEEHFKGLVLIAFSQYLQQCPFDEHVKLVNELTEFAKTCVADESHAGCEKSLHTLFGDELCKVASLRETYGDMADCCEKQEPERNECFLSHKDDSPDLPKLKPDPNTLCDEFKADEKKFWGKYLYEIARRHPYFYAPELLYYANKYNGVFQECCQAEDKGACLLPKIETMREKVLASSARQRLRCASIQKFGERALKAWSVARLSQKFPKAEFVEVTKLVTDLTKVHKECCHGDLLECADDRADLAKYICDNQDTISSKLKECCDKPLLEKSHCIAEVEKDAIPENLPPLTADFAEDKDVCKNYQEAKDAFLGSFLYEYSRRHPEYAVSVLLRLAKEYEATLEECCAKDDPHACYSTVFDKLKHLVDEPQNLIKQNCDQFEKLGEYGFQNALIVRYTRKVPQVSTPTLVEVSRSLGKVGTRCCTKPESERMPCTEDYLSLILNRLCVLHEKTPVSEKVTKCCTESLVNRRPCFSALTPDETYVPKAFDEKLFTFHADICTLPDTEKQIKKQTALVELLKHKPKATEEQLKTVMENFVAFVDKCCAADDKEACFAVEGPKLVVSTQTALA

## COc1cccc(/C=C2/Sc3ccc(C(=O)NCCN4CCCCCC4)cc3NC2=O)c1
[1]
  IC50: > 20 µM (inactive)
Paired box protein Pax-8
  AC50: 10.1 µM (active)
[2]
  AC50: 36 µM (active)

## Cc1ccc(-c2ccc(=O)n(Cc3cc(C)ccc3C)n2)cc1
[3]
  IC50: > 47.1 µM (inactive)
[4]
  EC50: > 53 µM (inactive)

## COc1ccc(OCC(C)(C)O)cc1
P388/ADR
  GI50: 1.31 µM (inactive)
SN12K1
  GI50: > 100 µM (inactive)
P388
  GI50: 38.2 µM (inactive)

## Cc1ccc(N2Cc3c(ccc4ccccc34)OP2(=O)Oc2ccc(Cl)c(C)c2)cc1 (stereo not given)
P388/ADR
  GI50: 7.45 µM (inactive)
SN12K1
  GI50: > 77.8 µM (inactive)
P388
  GI50: 4.75 µM (inactive)

## CC(=O)N1CCc2cc(S(=O)(=O)C(C)CC(=O)NCc3ccco3)ccc21 (stereo not given)
[5]
  AC50: > 52 µM (inactive)

## Cc1cc(Br)cc(/C=N/NC(=O)c2ccc3c(c2)OCO3)c1O
Albumin
  IC50: > 94.1 µM (inactive)
[6]
  IC50: > 122 µM (inactive)
Cells [7]
  EC50: 96.8 µM (active)
Cells [8]
  EC50: 75.7 µM (active)
[9]
  EC50: 1.22 µM (active)
INS1
  AC50: 1.32 µM (active)
Streptococcus
  EC50: 3.25 µM (active)

## CC(OC(=O)c1ccc(S(C)(=O)=O)c([N+](=O)[O-])c1)C(=O)NC1C2CC3CC(C2)CC1C3 (stereo not given)
Paired box protein Pax-8
  AC50: 5.88 µM (active)
[10]
  IC50: 0.8 µM (active)
[11]
  AC50: 1.4 µM (active)
[2]
  AC50: 22.6 µM (active)
[12]
  AC50: 8.28 µM (active)
Beta Lactamase
  IC50: 49.8 µM (inactive)
[13]
  AC50: 7.51 µM (active)
[14]
  IC50: > 64.6 µM (inactive)
Melanocortin receptor 4
  IC50: > 64.6 µM (inactive)

## Nc1ccc(S(=O)(=O)Nc2ccc(Cl)nn2)cc1 [SULFACHLORPYRIDAZINE]
[3]
  IC50: > 47.1 µM (inactive)
[4]
  EC50: > 53 µM (inactive)

Source: ChEMBL document CHEMBL1201862, “PubChem BioAssay data set” (2004)
